Laboratory results taken from PubChem BioAssay (NCI).
“And” between values parts separate entries of the source, which are not always exact repeats. Equal values may be shown once.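 Following 48 hours of exposure in 96-well plates, responses at five concentrations were used to interpolate endpoints linearly. Abbreviation: GI50, concentration required for 50% inhibition of growth. At the TGI there is no net growth.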

Experiments:
Experiment in all cases: growth of human tumour cells (NCI), 48 h
[1] = tested on: CAKI-1 renal
[2] = tested on: COLO 205 colon
[3] = tested on: MDA-MB-231 breast
[4] = tested on: MDA-MB-435
[5] = tested on: OVCAR-4 ovarian
[6] = tested on: OVCAR-5 ovarian
[7] = tested on: SF-539 CNS
[8] = tested on: TK-10 renal
[9] = tested on: DLD-1 colon
[10] = tested on: KM20L2 colon
[11] = tested on: M19-MEL melanoma
[12] = tested on: DMS 273 small cell lung

Row | Structure (SMILES) | TGI [1] | TGI [2] | TGI [3] [µM] | TGI [4] | TGI [5] [µM] | TGI [6] [µM] | TGI [7] | TGI [8] [µM] | GI50 [1] | GI50 [2] [µM] | GI50 [3] [µM] | GI50 [4] | GI50 [5] [µM] | GI50 [6] [µM] | GI50 [7] | GI50 [8] [µM] | TGI [9] [µM] | TGI [10] [µM] | TGI [11] [µM] | TGI [12] [µM]
1 | COc1ccc(/C(C#N)=C/c2ccc(OC)c(OC)c2)cc1 | > 100 µM | > 100 µM | > 100 | > 100 µM | > 100 | > 100 | > 100 µM | > 100 | – | – | – | – | – | – | – | – | – | – | – | –
2 | CCNC(=O)c1cc2c(-c3cc(C(C)(C)O)ccc3Oc3c(C)cc(F)cc3C)cn(C)c(=O)c2[nH]1 | 13.2 µM | 2.84 µM | 15.9 | 14.3 µM | 16.6 | 16.2 | 13.2 µM | 10.6 | 0.875 µM | 0.507 | 1.08 | 1.41 µM | 1.84 | 1.63 | 1.92 µM | 0.298 | – | – | – | –
3 | COc1cc(OC)c(/C=C/c2cnc3ccccc3n2)c(OC)c1 | > 10 µM | > 10 µM | > 10 | > 10 µM | > 10 | > 10 | > 10 µM | > 10 | – | – | – | – | – | – | – | – | – | – | – | –
4 | CCCCCCCCCc1cccc(N2C(N)=NC(N)=NC2(C)C)c1 | 2.5 µM | 2.38 µM | 3.37 | 1.83 µM | 4.39 | 4.67 | 2.1 µM | 1.48 | – | – | – | – | – | – | – | – | – | – | – | –
5 | N#Cc1c(N)nc(N2CCOCC2)c(C#N)c1-c1cccnc1 | 95 µM | 96.2 µM | > 100 | > 100 µM | > 100 | 73.5 | > 100 µM | > 100 | 32.6 µM | 36 | 27.6 | > 100 µM | 44.4 | 25.7 | > 100 µM | > 100 | – | – | – | –
6 | Nc1nc(-c2ccc(F)cc2)c(-c2ccc3ncccc3n2)s1 | > 25 µM | > 25 µM | > 25 | > 25 µM | > 25 | > 25 | > 25 µM | 17.1 | 9.27 µM | > 25 | > 25 | > 25 µM | 16.6 | 14.1 | 14.4 µM | 5.62 | – | – | – | –
7 | CCCCCCCCCCCCCP(=O)(O)OCC | – | > 100 µM | – | – | > 100 | > 100 | > 100 µM | > 100 | – | – | – | – | – | – | – | – | > 100 | > 100 | > 100 | –
8 | COc1ccc2c(c1)n([O-])c1ccccc1[n+]2=O | > 100 µM and 27 µM | > 100 µM and 74.7 µM | > 100 | > 100 µM and 46.4 µM | 77.8 | > 100 | > 100 µM and 45.9 µM | > 100 | 25.3 µM and 8 µM | – | – | 65.4 µM and 22.2 µM | – | – | 46.5 µM and 17.4 µM | – | – | – | – | –
9 | O=C(O)/C(=C/C=C/c1ccccc1)c1csc(-c2nc(/C(=C\C=C\c3ccccc3)C(=O)O)cs2)n1 | – | 51.3 µM | – | – | – | > 100 | 51.2 µM | > 100 | – | – | – | – | – | – | – | – | 57.7 | > 100 | > 100 | –
10 | CC[C@@H](C(=O)[C@@H](C)[C@@H](O)[C@H](C)[C@@H]1O[C@@H]([C@@H](CC)C(=O)N(CC)CC)CC[C@@H]1C)C1O[C@]2(C=CC(=O)[C@]3(CC[C@@](C)([C@H]4CC[C@](O)(CC)[C@H](C)O4)O3)O2)[C@H](C)C[C@@H]1C (stereo partly specified) | 13.5 µM | 5.4 µM | 3.33 | 9.95 µM | 15.3 | 10.1 | 5.47 µM | > 100 | 2.18 µM | 2.35 | 1.69 | 2.91 µM | 2.96 | 2.85 | 2.26 µM | 3.49 | – | – | – | –
11 | CN1CCN(c2ccc3nc(-c4ccc5nc(-c6ccc(OCCC(C)(C)C)cc6)[nH]c5c4)[nH]c3c2)CC1 | 15.7 µM | 30 µM | 5.83 | 3.99 µM | 25.5 | 9.96 | 26.1 µM | 38.8 | 4.15 µM | 12.9 | 2.85 | 1.97 µM | 10.1 | 2.96 | 11.5 µM | 18.2 | – | – | – | –
12 | COC(=O)C1=C(C)NC(C)=C(C(=O)OC)C1/C=C(Cl)/C=C/c1ccccc1 | 49.3 µM | 75.6 µM | 36.7 | 37.1 µM | > 100 | 54.2 | 41.2 µM | 65.9 | 20.7 µM | 30.9 | 17.9 | 18.8 µM | 30.4 | 19.4 | 21 µM | 22.7 | – | – | – | –
13 | O=C1c2ccccc2C(=O)c2c1ccc(C1C(=O)c3ccccc3C1=O)c2-c1c(C2C(=O)c3ccccc3C2=O)ccc2c1C(=O)c1ccccc1C2=O | > 100 µM | > 100 µM | > 100 | > 100 µM | > 100 | > 100 | > 100 µM | > 100 | – | – | – | – | – | – | – | – | – | – | – | –
14 | O=C(O)c1cccc(N=Nc2c(S(=O)(=O)O)ccc3c2C(=O)c2ccccc2C3=O)c1O | > 100 µM | > 100 µM | > 100 | > 100 µM | > 100 | > 100 | > 100 µM | > 100 | – | – | – | – | – | – | – | – | – | – | – | –
15 | O=C(/C=C/c1cc([N+](=O)[O-])ccc1Cl)c1ccccc1 | 31.3 µM | 48.2 µM | 70.7 | 35.5 µM | > 100 | 74.2 | 32.7 µM | > 100 | 5.32 µM | 23 | 19.3 | 14.2 µM | 33.9 | 23.5 | 16.6 µM | 38.2 | – | – | – | –
16 | C[C@]1(CO)CCC[C@@]2(C)C1CC[C@H]1CC3C[C@]12CC[C@]3(C)O (stereo partly specified) | > 100 µM | > 100 µM | – | – | > 100 | > 100 | > 100 µM | > 100 | – | – | – | – | – | – | – | – | > 100 | > 100 | – | > 100
17 | Clc1ccc(C2SCc3nc4ccccc4n32)cc1Cl (stereo unspecified) | 27 µM | 38.3 µM | – | – | 25.8 | 22.8 | 32.3 µM | 25.9 | – | – | – | – | – | – | – | – | 25.2 | – | – | –
18 | Cc1cc(C)nc(NS(=O)(=O)c2ccc(Nc3c4ccc(Cl)cc4nc4c(C(=O)Nc5ccc(S(N)(=O)=O)cc5)cccc34)cc2)n1 | – | – | – | – | 55.5 | 28.8 | 37.9 µM | 89.6 | – | – | – | – | – | – | – | – | 32 | 33.1 | > 100 | –
